Source: patent US4042693A, “Derivatives of 1,2,4-thiadiazine” (A. Christiaens Societe Anonyme, priority 1975, dated 1977)

tested on: paw of rats; assay: Anti-inflammatory test: carrageenan-induced rat paw swelling (plethysmography), oral; format: in vivo; conditions: oral route one hour before carrageenan injection, swelling determined 4 hours after injection, versus control group, dose not given
Protocol: The compounds to be tested are given as freshly prepared solutions or suspensions by oral route one hour before injecting the paw of rats with carrageenan which is a known inflammatory agent.
The inflammatory agent (carrageenan) either in solution or suspension is then injected into the plantar tissue of the right hind paw of each rat, the left paw remaining untreated and serving as control. Each animal receives, for example, 0.05 ml of an aqueous solution containing 1% by weight of carrageenan and 0.9% of sodium chloride.
4 Hours after the injection of the inflammatory agent, the importance of swelling is determined by plethysmography and is expressed as a percent of the volume of the control paw.
The anti-inflammatory effect expressed as a percentage of inhibition is obtained by comparison between rats treated with the anti-inflammatory compound and a control group of rats.

| Compound | % inhibition of acute oedema |
| --- | --- |
| O=S1(=O)N=C(c2ccccc2)N(c2cccc(C(F)(F)F)c2)c2ccncc21 [Example 1, 3-phenyl-4-metatrifluoromethylphenyl-4H-pyridino-[4,3-e]-1,2,4-thiadiazine-1,1-dioxide] | 53.6% |
| O=S1(=O)N=C(c2ccc(Cl)cc2)N(c2cc(Cl)cc(Cl)c2)c2ccncc21 [Example 2, 3-parachlorophenyl-4-(3',5'-dichlorophenyl)-4H-pyridino-[4,3-e]-1,2,4-thiadiazine-1,1-dioxide] | 57% |
| CCc1cccc(N2C(c3ccc(Cl)cc3)=NS(=O)(=O)c3cnccc32)c1 [Example 3, 3-parachlorophenyl-4-(3'-ethylphenyl)-4H-pyrido-[4,3-e]-1,2,4-thiadiazine-1,1-dioxide] | 60% |
| COc1cccc(N2C(c3ccccc3Cl)=NS(=O)(=O)c3cnccc32)c1 [Example 4, 3-orthochlorophenyl-4-(3-methoxyphenyl)-4H-pyrido-[4,3-e]-1,2,4-thiadiazine-1,1-dioxide] | 40% |
